According to US20100311841A1, “SYNTHETIC SPHINGOLIPID ANALOGS” (priority 2007, published 2010):

Tested on: TSU-PR1 cells
Assay: TSU-PR1 tumor xenograft in whole-body-irradiated BALB/NUDE mice
Format: in vivo
Conditions: BALB/NUDE mice irradiated with 400 cGy, s.c. TSU-PR1 tumors; AD-2813 20 mg/kg in cremophor s.c. daily close to tumor; after about 10 days of treatment; compared to control and cremophor groups (FIG. 1)
Procedure: BALB/NUDE mice were whole body irradiated with 400 cGy, 10 days later they were injected s.c. with 3.5*10e6 TSU-PR1 cells/mouse which are commonly considered as prostate carcinoma cells but recently are also considered by some as bladder carcinoma cells. Eight days later, tumors were formed, and mice were separated into 3 groups: Group 1: a control without any injection. Group 2: were injected s.c. with vehicle (cremophor) Group 3: were treated s.c. daily with AD-2813 (20 mg/kg in cremophor) close to tumor. […] The drastic change in tumor volume is pronounced particularly when compared to the control and treatment with cremophor groups.

## CCCCCCCCCCCCCCNC(CO)C(O)c1ccc(SC)cc1.Cl (stereo not shown) [AD-2813]
  tumor volume: significant decrease in tumor volume
